Laboratory results reported in the supplement of paper PMC7840683.
± gives the standard deviation of the averaged measurements.

Tested on: HepaRG
Assay: LDH release cytotoxicity, % of total lysis control; higher = more cytotoxic
Conditions: 48 h
Outline: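 Percent cytotoxicity was scaled between on-plate vehicle and total lysis controls, then averaged over duplicate wells. The cells were single-lot HepaRG on collagen I-coated 96-well plates, exposed for 48 h to eight-point half-log test chemical series topping at 100 µM in serum-free induction medium with 0.5% DMSO. Total lysis wells got 0.1% Triton X, and LDH in 50 µL spent medium was read as resorufin fluorescence (CytoTox-ONE, Tecan Safire).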

| Structure (SMILES) | LDH release cytotoxicity (0.03162 µM) | LDH release cytotoxicity (0.1 µM) | LDH release cytotoxicity (0.3162278 µM) | LDH release cytotoxicity (1 µM) | LDH release cytotoxicity (3.16228 µM) | LDH release cytotoxicity (10 µM) | LDH release cytotoxicity (31.6228 µM) | LDH release cytotoxicity (100 µM) | further results |
| --- | --- | --- | --- | --- | --- | --- | --- | --- | --- |
| CCOP(=O)(OCC)Oc1cc(C)nc(C(C)C)n1 [Diazoxon] | -0.61 ± 0.39% | -1.35 ± 0.75% | -0.708 ± 1.4% | -1.37 ± 1.6% | -1.41 ± 0.85% | -0.802 ± 2.1% | -0.357 ± 1.4% | 1.03 ± 2.2% |  |
| COc1cccc(-c2ccc(C=CCN3CCCCCC3)cc2Cl)c1 |  |  |  |  |  |  |  |  | LDH release cytotoxicity (0.0286186 µM): -0.404 ± 1.3%; LDH release cytotoxicity (0.0905 µM): -2.18 ± 0.81%; LDH release cytotoxicity (0.2861861 µM): -2.02 ± 0.061%; LDH release cytotoxicity (0.905 µM): -1.85 ± 0.81%; LDH release cytotoxicity (2.86186 µM): -1.3 ± 0.38%; LDH release cytotoxicity (9.05 µM): -0.654 ± 1.5%; LDH release cytotoxicity (28.618613 µM): 0.285 ± 1.1%; LDH release cytotoxicity (90.5 µM): 71.6 ± 10% |
| Cc1ccc(N)cc1O [5-Amino-2-methylphenol] | -0.861 ± 0.26% | -1.2 ± 1.2% | -0.469 ± 1.2% | -1.04 ± 0.78% | -0.613 ± 0.33% | -0.636 ± 0.094% | -0.124 ± 0.049% | 0.121 ± 0.6% |  |
| CCCc1ccccc1 [Propylbenzene] | 0.0897 ± 0.19% | 0.202 ± 1% | -0.202 ± 0.32% | -0.857 ± 0.72% | 0.305 ± 0.066% | -0.0719 ± 0.68% | 1.09 ± 2% | 0.766 ± 0.2% |  |
| CC1(C(=O)Nc2ccc(O)c(Cl)c2Cl)CCCCC1 [Fenhexamid] |  | -4.08 ± 0.5% |  | -3.83 ± 0.64% | -3.52 ± 0.054% | -3.56 ± 0.41% | -3.14 ± 0.72% | -0.0455 ± 1.5% | LDH release cytotoxicity (0.031623 µM): -0.566 ± 0.13%; LDH release cytotoxicity (0.316228 µM): -4.43 ± 1.2% |
| CCC(C)(CC)c1cc(NC(=O)c2c(OC)cccc2OC)on1 [Isoxaben] | -2.09 ± 1.5% | -2.04 ± 0.44% | -2.03 ± 0.16% | -2.59 ± 0.72% | -2.88 ± 0.57% | -1.64 ± 0.83% | -1.59 ± 0.14% | 11.4 ± 1.3% |  |
| ClCCOCCCl [Bis(2-chloroethyl) ether] | -2.26 ± 0.94% | -1.98 ± 0.48% | -2.69 ± 0.3% | -2.69 ± 0.29% | -1.96 ± 0.21% | -2.12 ± 0.39% | -2.25 ± 0.35% | -0.123 ± 0.23% |  |
| COC1COCCC1NC1CCC(C(=O)N2CCc3ncc(C(F)(F)F)cc3C2)(C(C)C)C1 (centres undefined) [MK-812] | 0.0558 ± 0.81% | -1.65 ± 0.31% | -1.72 ± 0.43% | -2.52 ± 1.1% | -1.87 ± 1% | -1.43 ± 0.51% | -1.59 ± 0.027% | -0.0412 ± 0.23% |  |
| CCCCCCCCn1sccc1=O [Octhilinone] |  |  |  |  |  |  |  |  | LDH release cytotoxicity (0.0328877 µM): -1.41 ± 0.74%; LDH release cytotoxicity (0.104 µM): -1.11 ± 0.18%; LDH release cytotoxicity (0.328877 µM): -1.8 ± 0.29%; LDH release cytotoxicity (1.04 µM): -2.06 ± 0.24%; LDH release cytotoxicity (3.28877 µM): -1.28 ± 0.083%; LDH release cytotoxicity (10.4 µM): -1.43 ± 0.041%; LDH release cytotoxicity (32.8877 µM): -0.0918 ± 0.75%; LDH release cytotoxicity (104 µM): 41.4 ± 8.2% |
| Cn1c(=O)c2[nH]cnc2n(C)c1=O [Theophylline] | -1.27 ± 0.97% | -2.1 ± 0.29% | -1.54 ± 0.53% | -1.74 ± 0.26% | -1.51 ± 0.33% | -1.15 ± 0.042% | -0.719 ± 0.16% | -0.479 ± 0.38% |  |
| Clc1cc(Cl)c2c(c1)N=C1CCCCCN1C2 | -2.23 ± 0.45% | -1.38 ± 0.19% | -0.748 ± 0.22% | -1.45 ± 0.52% | -1.34 ± 0.11% | 1.41 ± 0.42% | 1.58 ± 0.34% | 3.36 ± 0.44% |  |
| CN(C)C(=O)Cl [Dimethylcarbamoyl chloride] | -1.3 ± 0.049% | -0.716 ± 0.62% | -0.579 ± 0.073% | -0.789 ± 0.59% | -0.264 ± 0.42% | -0.4 ± 0.096% | -0.611 ± 0.2% | 0.647 ± 0.56% |  |
| CCOC(=O)COc1ccc2c(c1)CC(NCC(O)c1cccc(Cl)c1)CC2 (centres undefined) |  |  |  |  |  |  |  |  | LDH release cytotoxicity (0.02893 µM): -1.56 ± 0.66%; LDH release cytotoxicity (0.0915 µM): 0.00613 ± 0.73%; LDH release cytotoxicity (0.289348 µM): -0.98 ± 0.2%; LDH release cytotoxicity (0.915 µM): -1.71 ± 0.69%; LDH release cytotoxicity (2.89348 µM): -1.72 ± 0.32%; LDH release cytotoxicity (9.15 µM): -1.13 ± 0.47%; LDH release cytotoxicity (28.9348 µM): 1.91 ± 1.4%; LDH release cytotoxicity (91.5 µM): 10.4 ± 2.2% |
| CCCN(CC)CC1COC2(CCC(C(C)(C)C)CC2)O1 (centres undefined) [Spiroxamine] | -0.782 ± 0.87% | -1.02 ± 0.35% | 0.233 ± 0.6% | -0.292 ± 0.15% | 0.829 ± 0.38% | 0.738 ± 0.62% | 1.08 ± 0.99% | 1.62 ± 0.76% |  |
| Nc1ccc2c(c1)C(=O)c1ccccc1C2=O [2-Aminoanthraquinone] | -1.78 ± 0.3% | -1.65 ± 0.022% | -1.65 ± 0.11% | -1.44 ± 0.32% | -1.62 ± 0.56% | -1.05 ± 0.29% | -1.21 ± 0.022% | -0.125 ± 0.23% |  |
| Nc1ccc(Cl)cc1 [4-Chloroaniline] | -1.56 ± 1.1% | -0.947 ± 0.94% | -2.25 ± 0.86% | -1.34 ± 1.4% | -0.444 ± 0.82% | -1.71 ± 0.56% | -1.53 ± 0.87% | 0.243 ± 0.87% |  |
| CC1(C)C(C=C(Cl)Cl)C1C(=O)OCc1cccc(Oc2ccccc2)c1 (centres undefined) [Permethrin] | -0.121 ± 0.81% | -0.859 ± 2% | -0.0615 ± 0.15% | -1.15 ± 0.33% | -1.16 ± 0.27% | -1.02 ± 1% | -1.28 ± 0.3% | -0.44 ± 0.19% |  |
| CC1OC=CC(=O)C1=O (centres undefined) [Maltol] |  |  |  |  |  |  |  |  | LDH release cytotoxicity (0.032888 µM): -1.82 ± 0.089%; LDH release cytotoxicity (0.104 µM): -1.46 ± 1.1%; LDH release cytotoxicity (0.328877 µM): -2.18 ± 0.095%; LDH release cytotoxicity (1.04 µM): -3.62 ± 0.59%; LDH release cytotoxicity (3.28877 µM): -2.64 ± 0.45%; LDH release cytotoxicity (10.4 µM): -1.92 ± 0.23%; LDH release cytotoxicity (32.8877 µM): -1.627 ± 0.0032%; LDH release cytotoxicity (104 µM): 0.353 ± 0.45% |
| Nc1cc2c3c(c1)C(c1ccccc1)=NC(NC(=O)c1cccnc1)C(=O)N3CC2 (centres undefined) [CI-1044] | -1.32 ± 0.016% | -0.234 ± 0.4% | -1.37 ± 0.23% | -0.0936 ± 0.47% | -0.301 ± 0.14% | 0.515 ± 1.5% | 0.683 ± 0.68% | 0.815 ± 1.6% |  |
| COC1C(OC(=O)NC(=O)CCl)CCC2(CO2)C1C1(C)OC1CC=C(C)C (centres undefined) [o-(Chloroacetylcarbamoyl)fumagillol] |  |  |  |  |  |  |  |  | LDH release cytotoxicity (0.01012 µM): -1.03 ± 1.5%; LDH release cytotoxicity (0.032 µM): -2.16 ± 1.1%; LDH release cytotoxicity (0.101193 µM): -2.32 ± 0.23%; LDH release cytotoxicity (0.32 µM): -2.5 ± 0.28%; LDH release cytotoxicity (1.01193 µM): -1.78 ± 0.47%; LDH release cytotoxicity (3.2 µM): -1.64 ± 0.6%; LDH release cytotoxicity (10.1193 µM): -0.944 ± 0.11%; LDH release cytotoxicity (32 µM): 0.233 ± 0.59% |
| O=c1[nH]cnc2c1ncn2C1CCC(CO)O1 (centres undefined) [2',3'-Dideoxyinosine] | -2.26 ± 0.4% | -1.91 ± 0.031% | -1.96 ± 1% | -1.29 ± 0.97% | -1.75 ± 0.0016% | -1.3 ± 0.057% | -1.11 ± 1.1% | -0.428 ± 0.43% |  |
| COc1ccc(C(c2ccc(OC)cc2)C(Cl)(Cl)Cl)cc1 [Methoxychlor] |  |  |  |  |  |  |  |  | LDH release cytotoxicity (0.0314647 µM): -0.145 ± 0.82%; LDH release cytotoxicity (0.0995 µM): -0.434 ± 1.2%; LDH release cytotoxicity (0.3146466 µM): -0.0516 ± 0.38%; LDH release cytotoxicity (0.995 µM): 0.115 ± 0.092%; LDH release cytotoxicity (3.14647 µM): 0.0841 ± 0.19%; LDH release cytotoxicity (9.95 µM): -0.153 ± 0.2%; LDH release cytotoxicity (31.4647 µM): 0.12 ± 0.78%; LDH release cytotoxicity (99.5 µM): 17 ± 0.64% |
| CCCCCCCCCC(=O)O [Decanoic acid] | -1.36 ± 0.57% | -2.46 ± 0.9% | -1.69 ± 0.25% | -1.7 ± 0.25% | -1.42 ± 0.15% | -1.16 ± 0.079% | -0.917 ± 0.64% | -0.408 ± 0.48% |  |
| c1cc2c3c(cccc3c1)CC2 [Acenaphthene] | -0.325 ± 0.66% | -0.376 ± 0.039% | 0.475 ± 0.27% | -0.576 ± 0.93% | -0.0334 ± 0.48% | 0.635 ± 0.44% | 0.885 ± 1.1% | 1.86 ± 0.3% |  |
| O=C1OC(=O)C2C3C=CC(C3)C12 (centres undefined) [2-Norbornene-5,6-dicarboxylic anhydride] | -1.12 ± 0.28% | -0.887 ± 0.62% | -1.06 ± 0.25% | -1.3 ± 0.092% | -0.802 ± 0.41% | -1.42 ± 0.42% | -0.266 ± 0.16% | 1.32 ± 0.12% |  |
| CCC(=C(c1ccc(O)cc1)c1ccc(OCCN(C)C)cc1)c1ccccc1 [4-Hydroxytamoxifen] |  | -3.22 ± 0.47% |  | -3.76 ± 0.11% | -3.7 ± 0.16% | -3.42 ± 0.63% | -3.18 ± 0.93% | -0.0951 ± 1.1% | LDH release cytotoxicity (0.031623 µM): -1.94 ± 1%; LDH release cytotoxicity (0.316228 µM): -3.61 ± 1.1% |
| CSC(=O)c1c(C(F)F)nc(C(F)(F)F)c(C(=O)SC)c1CC(C)C [Dithiopyr] |  |  |  |  |  |  |  |  | LDH release cytotoxicity (0.0140721 µM): -1.51 ± 2.5%; LDH release cytotoxicity (0.0445 µM): -2.25 ± 0.63%; LDH release cytotoxicity (0.1407214 µM): -2.63 ± 0.43%; LDH release cytotoxicity (0.445 µM): -3.81 ± 0.56%; LDH release cytotoxicity (1.4072136 µM): -3.84 ± 0.3%; LDH release cytotoxicity (4.45 µM): -5.82 ± 2.5%; LDH release cytotoxicity (14.072136 µM): -1.76 ± 2.3%; LDH release cytotoxicity (44.5 µM): -1.31 ± 1.6% |
| FC(F)C(F)(F)OCC(Cn1cncn1)c1ccc(Cl)cc1Cl (centres undefined) [Tetraconazole] |  |  |  |  |  |  |  |  | LDH release cytotoxicity (0.0314647 µM): -0.665 ± 0.72%; LDH release cytotoxicity (0.0995 µM): -2.23 ± 0.2%; LDH release cytotoxicity (0.3146466 µM): -1.54 ± 0.36%; LDH release cytotoxicity (0.995 µM): -2.38 ± 0.84%; LDH release cytotoxicity (3.14647 µM): -2.48 ± 0.21%; LDH release cytotoxicity (9.95 µM): -2.1 ± 0.41%; LDH release cytotoxicity (31.4647 µM): 1.5 ± 0.2%; LDH release cytotoxicity (99.5 µM): 52.5 ± 4.9% |
